{
  "source": "patent US20230240964A1",
  "about": "“SKIN-FIRMING COSMETIC COMPOSITIONS” (Elastintech, Inc., priority 2021, published 2023)",
  "key": {"human cells": {"tested_on": "human cells", "details": "human cells in vitro; cited from earlier work"}, "[1]": {"details": "\"at levels of up to 10%\"; cited from earlier work"}, "[2]": {"tested_on": "skin of a subject's left arm (elastic fibers)", "assay": "Histology of elastin (VVG stained) punch biopsy, treated vs untreated skin", "assay_type": "in vivo, human", "details": "25% dimethyl isosorbide solution, topical, 24 days, vs untreated skin of same subject", "protocol": "The skin of a subject's left arm was treated with a 25% dimethyl isosorbide solution of glucosyl pentagallate for 24 days."}, "[3]": {"tested_on": "skin of a subject's left arm", "assay": "Histology of polyphenol-stained (ferric chloride) punch biopsy, treated vs untreated skin", "assay_type": "in vivo, human", "details": "25% dimethyl isosorbide solution, topical, 24 days, vs untreated skin of same subject", "protocol": "The skin of a subject's left arm 2 cm^2 patch (upper under arm above elbow) was treated with a 25% dimethyl isosorbide solution of glucosyl pentagallate for 24 days. Biopsy samples of the treated skin and a similar sample of untreated skin from the same subject's right were then taken, sectioned, and stained for polyphenol (Ferric Chloride stain) and imaged with a light microscope."}},
  "data": [
    {"smiles": "CC1=NC(C(=O)O)CCN1", "note": "(stereo not shown) [Ectoin, 1,4,5,6-tetrahydro-2-methyl-4-pyrimidinecarboxylic acid]", "values": [
      {"measurement": "cell damage from UV and visible light", "setting": "human cells", "value": "prevent cell damage from UV and visible light"}
    ]},
    {"smiles": "NCCCC(=O)O", "note": "[GABA, γ-aminobutyric acid]", "values": [
      {"measurement": "improvement of skin elasticity", "setting": "[1]", "value": "up to 10%"}
    ]},
    {"smiles": "O=C(OC[C@H]1O[C@@H](OC(=O)c2cc(O)c(O)c(O)c2)[C@H](OC(=O)c2cc(O)c(O)c(O)c2)[C@@H](OC(=O)c2cc(O)c(O)c(O)c2)[C@@H]1OC(=O)c1cc(O)c(O)c(O)c1)c1cc(O)c(O)c(O)c1", "note": "[glucosyl pentagallate]", "values": [
      {"measurement": "VVG staining of elastic fibers (levels of elastin fibers)", "setting": "[2]", "value": "significant black staining"},
      {"measurement": "polyphenol (ferric chloride) staining of the dermis, showing glucosyl pentagallate in the dermis", "setting": "[3]", "value": "more black staining in the dermis"}
    ]}
  ]
}
